Measurements: US20220401428A1, “Method for Treatment of Alzheimer's Disease” (University of Kentucky Research Foundation, priority 2019, published 2022)

Legend:
[1] = tested on: ADHIP rats; assay: Behavior testing of sEHi-treated ADHIP rats (composite z-score); assay type: in vivo, rat; settings: late stage (>16 months old) and early stage (12 months old) cohorts, treated vs untreated
Protocol: (§1) Pharmacological treatment on animals To increase plasma eicosanoids levels, the animals were treated with TPPU (1-Trifluoromethoxyphenyl-3-(1-propionylpiperidin-4-yl) urea, N-[1-(1-Oxopropyl)-4-piperidinyl]-N′-[4-(trifluoromethoxy)phenyl]-urea), a soluble epoxide hydrolase inhibitor (sEHi) (HY-101294, MedChem Express). […] 12 months old (n=5; early-stage) and 16 months old (n=6; late stage) animals were subjected to treatment with sEHi. For treatment at early-stage, the drug was administered through drinking water (3 mg/L, daily) and intravenous injection (20 μg/kg, once a week) to ensure equal intake for each animal. […] Amount of water intake was measured daily.
Behavior testing Forelimb use test/Cylinder test, inclined plane, hind limb clasping test. […] Animal forelimb deficit was evaluated by forelimb-to-wall contact time in cylinder test. […] Abnormalities in the animal hind limbs were assessed by scoring the severity of hind limb clasping.
Rotarod assessment Motor coordination and balance were tested by the rotarod (Rotamex 5, Columbus Instrument, OH) test^27. […] The remaining read-outs were averaged, and a group average was calculated for each genotype. […]
Morris Water Maze Spatial learning and long-term memory retention were tested in a 1.5 m diameter Morris Water Maze, as previously described^15. […] Trials were recorded by EthoVision XT software (Noldus, VA). […]

[2] = tested on: ADHIP rats; assay: Hypoxia markers in brain and brain capillary lysates of sEHi-treated ADHIP rats; assay type: in vivo, rat; settings: treated vs untreated, HIF-1α, HIF-2α, Arg-1, Arg-2, arginase activity, mitochondrial DNA
Protocol: as §1, with “daily. […]” for “daily.”
Enzyme-linked immune absorbance assay (ELISA) Levels of amylin in human brain samples were measured using sandwich amylin ELISA from Millipore (EZHA-52K). Levels of amylin in human CSF and animal samples were measured using amylin sandwich ELISA from R&D system (EIA-AMY). Aβ levels in animal CSF were measured using high sensitivity electrochemiluminescence ELISA (MSD 6E10, K15200G-2, Meso Scale Discovery). […]
Arginase activity Arginase activity in rat brain capillaries were measured using arginase activity kit (MAK112, Sigma). […]
Mitochondria DNA extraction and analysis Protocol for quantifying mitochondrial DNA content was described in Ref 32. […] DNA purity was assessed by ensuring the A260/A280 ratio was >1.8. […]

[3] = tested on: ADHIP rats; assay: Histology and immunohistochemistry of brains of sEHi-treated ADHIP rats; assay type: in vivo, rat; settings: treated vs untreated; for extent of axonal degeneration: MBP and LFB staining; for amylin deposition in brain capillaries: immunohistochemical analysis
Protocol: Pharmacological treatment on animals To increase plasma eicosanoids levels, the animals were treated with TPPU (1-Trifluoromethoxyphenyl-3-(1-propionylpiperidin-4-yl) urea, N-[1-(1-Oxopropyl)-4-piperidinyl]-N′-[4-(trifluoromethoxy)phenyl]-urea), a soluble epoxide hydrolase inhibitor (sEHi) (HY-101294, MedChem Express). […] 12 months old (n=5; early-stage) and 16 months old (n=6; late stage) animals were subjected to treatment with sEHi. For treatment at early-stage, the drug was administered through drinking water (3 mg/L, daily) and intravenous injection (20 μg/kg, once a week) to ensure equal intake for each animal. For treatment at late-stage, the drug was administered through and intravenous injection (20 μg/kg, daily, 1 month) and then through drinking water (3 mg/L, daily, 1 month). Amount of water intake was measured daily.
Histology and demyelination scoring Myelination in rat brains was analyzed by staining with Luxol fast blue (LFB) dye. Scoring analysis method was performed as described previously^15. Microhemorrhages in rat brains were stained with Prussian blue dye and analyzed as described previously^15. Congo red staining was performed on the human brains as previously^11 described.
Immunohistochemistry. Formalin fixed, paraffin embedded brain and pancreas tissues from humans, ADHIP, AD, WT, and AD-AKO rats were used. Tissues were processed as previously described^11,14,15,27. After tissue rehydration, the endogenous peroxidase was quenched in 3% H2O2 in methanol for 30 minutes. For amylin and Aβ antigen retrieval, sections were treated with 100% formic acid for 5 minutes, followed by 0.5% pepsin digestion in 5 mM HCl for 20 minutes at 37° C. To retrieve intra-neuronal amylin antigen (rat brains) as well as other antigens, tissue sections were heated in citrate buffer for 30 minutes. Non-specific antibody binding was blocked by 15% horse serum for 1 hour at room temperature (RT). Primary antibodies against amylin, human Aβ, Iba1, CD68 or myelin basic protein (MBP) was incubated on slides overnight at 4° C. Sections were then washed and incubated with secondary antibodies. Signal was developed with DAB or AEC peroxidase substrate. For co-staining with two antibodies, after the signal was developed for the first antibody, sections were then rinsed in water. Non-specific antibody binding was blocked with 10% normal goat serum, and the sections were incubated with the second primary antibody overnight at 4° C. Sections were then washed and incubated with AP-conjugated secondary antibody, and developed with StayGreen/AP chromogen substrate. Sections were mounted with aqueous mounting medium. The specificity of the amylin antibody in both human and rat brain tissues was established in previous studies^11,14,15,27.
Imaging analysis Wide-field images of stained tissue sections were generated by stitching images obtained from the 10× objective lens (Nikon NIS-Element Software). Higher magnification images for specific tissue area were obtained using the 40× objective lens. The immunoreactivity signal for each antibody was analyzed by ImageJ. Clearly defined-signal pixels were selected to establish the RGB profile of the color of interest. The threshold for each color signal was adjusted to reduce background noise. The established RGB profile and threshold were applied to a Macro script command, using Color Deconvolution plugin in ImageJ. The staining area was calculated using the following equation: […]

[4] = reference 24; cited from earlier work
[5] = tested on: LRP1; assay: LRP1 protein expression in rat brain microvascular ECs (Western blot, immunofluorescence); assay type: cell-based
From the text: To study the role of miRNA signaling in amylin-induced suppression of endothelial LRP1 expression, transfection of rat brain microvascular ECs was used with miR-103-3p (MCR01039)[…](SEQ ID NO: 5), miR-107-3p (MCR01045)[…](SEQ ID NO: 6) and control (MCH00000) (https://www.abmgood.com/mirna-mimic-negative-control-mch00000.html). Antagomir miR-103-3p (IH-320345-05-0005)(SEQ ID NO: 5), miR-107-3p (IH-320348-05-0005)(SEQ ID NO: 6) and negative control (IN-001005-01-05) (https://www.biocompare.com/22445-RNA/4995709-miRIDIAN-microRNA-Hairpin-Inhibitor-Negative-Control-1-5-nmol/#productspecs) (Dharmacon Inc.) were used in an attempt to rescue LRP1 expression. All transfections were done using RNAiMAX (Invitrogen) as per manufacturer's recommended protocol. Briefly, ECs were plated at 50% confluency in 6-well plates followed by co-transfection with either 100 nM of 103-3p and 107-3p mimics or antagomirs along with their respective negative controls. After 12-hours, antagomir-treated cell groups were further treated with 10 uM human amylin for 24-hours. After 36-hours of transfection, cells were harvested for Western blot analysis.
In immunofluorescence experiments, formalin-fixed, paraffin-embedded human brain tissue was used and processed as previously described^16,18,39, brain capillaries from HIP and WT rats isolated as previously described^18. and cultured ECs. Anti-amylin (1:200; clone E5; SC-377530; Santa Cruz), anti-collagen IV (1:500; ab6586; abcam), anti-alpha smooth muscle actin-Alexa Fluor 405 (1:200; ab210128, abcam), anti-caveolin-1 (1:100; sc-894; Santa Cruz, Tex.), anti-LRP1 (1:500; sc-57351; Santa Cruz), anti-4HNE (1:200; ab46545; abcam) were the primary antibodies. Secondary antibodies were: Alexa Fluor 488 conjugated anti-mouse IgG (1:300; A11029; Invitrogen), Alexa Fluor 568 conjugated anti-rabbit IgG (1:200; A11036; Invitrogen), Alexa Fluor 568 conjugated anti-mouse IgG (1:300; A11004; Invitrogen). Nuclei were counterstained with DAPI mounting media. For triple staining of human brain tissues, smooth muscle actin-Alexa Fluor 405 antibody was added after staining with human amylin and collagen IV; DAPI free mounting media was used. For Thioflavin S staining, after secondary antibody incubation, brain slides were incubated in 0.5% Thioflavin S for 30 minutes at room temperature. Slides were then incubated for 3 minutes in 70% ethanol, 5 minutes in 0.2% Sudan black before washing and mounting. Immunocytochemistry was performed as described previously (39, 40).
Western blot analysis was performed on isolated brain capillaries, brain tissue homogenate and plasma from rats. Tissues were processed as described previously^16,18,28,39. RIPA buffer with 2% SDS was used to retrieve Aβ monomers from frozen brain samples^41. […]

[6] = listed as inhibitor of soluble epoxide hydrolase (sEH)

In the case of CCC(=O)N1CCC(NC(=O)Nc2ccc(OC(F)(F)F)cc2)CC1 [sEHi, 1-(1-propanoylpiperidin-4-yl)-3-[4-(trifluoromethoxy)phenyl]urea], the behavior deficits [1] is reported as “attenuation of functional decline”, the behavior deficits [1, 6] is reported as “reduced behavior deficits” and the “brain accumulation of hypoxia markers” value [2] is reported as “lowered brain accumulation of hypoxia markers”. The “extent of axonal degeneration” value [3] was “ameliorated”, the “extent of axonal degeneration” value [3, 6] was “reduced” and the “number of brain microhemorrhages” value ([3]; Prussian blue) was “reduced”. The “amylin deposition in brain capillaries” value [3] was “reduced capillary amylin deposition”, the “amylin deposition in brain capillaries” value [3, 6] was “reduced amylin deposition in brain capillaries” and the “level of circulating amylin” value [4] was “lower the level of circulating amylin”.

With rat amylin the LRP1 protein levels ([5]; ECs, 10 μM, 24-hour incubation, confocal microscopy and Western blot) was “no effect”.

For “miR-103 and miR-107 mimics: co-transfected miRNA mimics miR-103-3p (SEQ ID NO: 5) and miR-107-3p (SEQ ID NO: 6) (chain 1 AGCAGCAUUGUACAGGGCUAUGA; chain 2 AGCUUCUUUACAGUGUUGCCUUGU; listed as RNA, chemistry not given here)”, the “average LRP1 expression level” value ([5]; ECs co-transfected with 100 nM mimics, 24 hours, vs miR-control, Western blot) was “lower”.
